{"source": "patent US20150119352A1", "about": "“DINUCELOSIDE POLYPHOSPHATES FOR THE TREATMENT OF PAIN” (GlobalAcorn Ltd., priority 2012, published 2015)", "key": {"[1]": {"biological_target": "T1, rat homomeric P2X2 receptors (Rattus norvegicus, UniProt P49653)", "T1 construct": "expressed in transfected cells; host or cells: HEK 293", "T1 sequence (P49653 1-472)": "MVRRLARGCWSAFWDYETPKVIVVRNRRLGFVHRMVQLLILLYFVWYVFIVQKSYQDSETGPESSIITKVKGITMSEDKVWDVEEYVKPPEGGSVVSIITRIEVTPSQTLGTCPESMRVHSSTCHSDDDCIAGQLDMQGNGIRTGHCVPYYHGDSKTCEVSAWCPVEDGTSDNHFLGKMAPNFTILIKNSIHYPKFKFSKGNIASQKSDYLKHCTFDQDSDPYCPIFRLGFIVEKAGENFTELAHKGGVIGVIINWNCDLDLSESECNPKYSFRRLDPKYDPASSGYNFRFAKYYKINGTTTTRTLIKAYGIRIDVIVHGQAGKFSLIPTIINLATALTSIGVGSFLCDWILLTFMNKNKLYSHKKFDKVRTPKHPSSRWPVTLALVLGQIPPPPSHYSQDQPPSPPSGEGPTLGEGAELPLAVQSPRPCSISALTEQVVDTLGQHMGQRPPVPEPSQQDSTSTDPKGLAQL", "assay": "Whole-cell patch clamp on HEK cells expressing rat homomeric P2X2 receptors", "assay_type": "cell-based", "conditions": "1 μM; 10 μM ATP", "procedure": "(§1) FIG. 4. […] A. Example traces of responses induced by 10 μM ATP applied for 2 s every 2 min to HEK cells expressing rat homomeric P2X2 receptors in the presence and absence of 1 μM AppNHppA. B. Comparison of currents induced by the full agonist of P2X2 receptors, ATP, in the presence of 1 μM AppNHppA (right) and absence (left). C. The time course of the current in the presence and absence of 1 μM AppNHppA. D. Comparison of currents induced by the full agonist of rat homomeric P2X4 and P2X7 receptors, ATP, in the presence of 1 μM AppNHppA (right) and absence (left). Experiments were performed as in FIG. 2.\n(§2) Trigeminal, nodose, DRG neurons or HEK cells were recorded in the whole-cell configuration while being continuously superfused (at 2 mL/min) with control solution containing (in mM): 152 NaCl, 5 KCl, 1 MgCl2, 2 CaCl2, 10 glucose, and 10 HEPES; pH was adjusted to 7.4 with NaOH and osmolarity was adjusted to 320 mOsM with glucose. […] Responses to selective P2X3 receptor agonist α,β-methylene-ATP (α,β-meATP; resistant to ectoATPase hydrolysis, Sigma-Aldrich) were measured using an EPC-9 amplifier and HEKA Patch Master software (HEKA Electronik, Germany). Cells were voltage-clamped at −70 mV. In most cells, series resistance was compensated by 80%. […]"}, "[2]": {"biological_target": "T2, rat homomeric P2X7 receptors (Rattus norvegicus, UniProt Q64663)", "T2 construct": "expressed in transfected cells", "T2 sequence (Q64663 1-595)": "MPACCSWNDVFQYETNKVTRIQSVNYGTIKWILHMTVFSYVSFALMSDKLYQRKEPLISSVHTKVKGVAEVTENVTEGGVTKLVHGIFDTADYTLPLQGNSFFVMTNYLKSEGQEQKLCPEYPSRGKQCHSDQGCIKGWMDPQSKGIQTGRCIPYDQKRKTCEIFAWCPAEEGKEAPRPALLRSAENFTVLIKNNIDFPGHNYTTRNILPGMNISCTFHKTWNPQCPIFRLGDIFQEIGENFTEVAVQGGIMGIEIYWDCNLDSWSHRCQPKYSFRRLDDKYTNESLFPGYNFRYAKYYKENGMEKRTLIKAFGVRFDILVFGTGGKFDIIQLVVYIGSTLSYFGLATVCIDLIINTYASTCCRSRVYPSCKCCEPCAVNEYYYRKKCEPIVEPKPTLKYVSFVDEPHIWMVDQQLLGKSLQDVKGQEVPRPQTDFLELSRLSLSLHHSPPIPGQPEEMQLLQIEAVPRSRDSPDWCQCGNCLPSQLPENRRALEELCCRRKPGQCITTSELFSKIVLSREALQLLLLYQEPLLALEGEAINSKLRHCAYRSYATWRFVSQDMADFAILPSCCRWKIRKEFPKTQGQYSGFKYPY", "assay": "Whole-cell patch clamp, rat homomeric P2X7 receptors", "assay_type": "cell-based", "conditions": "1 μM; ATP", "procedure": "as §1, §2"}}, "note": "“Also recorded” adds a separate entry of the source."}
{"smiles": "Nc1ncnc2c1ncn2[C@@H]1O[C@H](COP(=O)(O)OP(=O)(O)NP(=O)(O)OP(=O)(O)OC[C@H]2O[C@@H](n3cnc4c(N)ncnc43)C(O)C2O)C(O)C1O", "note": "(stereo in doubt) [AppNHppA]", "values": [{"measurement": "effect on P2X2 receptor-mediated currents", "setting": "[1]", "result": "not observed to produce any effects; also recorded: non-inhibitory effect"}, {"measurement": "effect on P2X7 receptor-mediated currents", "setting": "[2]", "result": "not observed to produce any effects; also recorded: non-inhibitory effect"}]}
